Where only a bound is given, the exact number is not on record here.

This assay deals with recombinant NL4-3 virus (Renilla luciferase in nef, Gag P373S). Put plainly: HIV cell culture assay (luciferase activity in MT-2 cells infected with NLRluc recombinant virus). Type of assay: cell-based. The settings on record: NL43, MT-2 cells infected 4-5 days with NLRluc recombinant virus. The method, boiled down: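 Activity was read as luciferase output (Dual Luciferase reagents premixed with lysis solution) after 4–5 days of infection in serially diluted inhibitor. Host cells were MT-2 in 10% FBS RPMI. The reporter virus came from transfected 293T cells and was titered on MT-2.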

A word on the EC50: it is the concentration needed to bring the measured effect to its halfway point. Consider `C=C(C)[C@@H]1CC[C@]2(CNCCC(=O)N3CCS(=O)(=O)CC3)CC[C@]3(C)[C@H](CC[C@@H]4[C@@]5(C)CC=C(c6ccc(C(=O)O)cc6)C(C)(C)[C@@H]5CC[C@]43C)[C@@H]12` [Example 118, 4-((1R,3aS,5aR,5bR,7aR,11aS,11bR,13aR,13bR)-3a-(((3-(1,1-dioxido-4-thiomorpholinyl)-3-oxopropyl)amino)methyl)-1-isopropenyl-5a,5b,8,8,11a-pentamethyl-2,3,3a,4,5,5a,5b,6,7,7a,8,11,11a,11b,12,13,13a,13b-octadecahydro-1H-cyclopenta[a]chrysen-9-yl)benzoic acid], for which the EC50 (class symbol) is under 100 nM. Same read-out and setting: with `C=C(C)[C@@H]1CC[C@]2(CNCCC(=O)N3CCn4c(nnc4C(F)(F)F)C3)CC[C@]3(C)[C@H](CC[C@@H]4[C@@]5(C)CC=C(c6ccc(C(=O)O)cc6)C(C)(C)[C@@H]5CC[C@]43C)[C@@H]12` [Example 119] the figure was under 100 nM; with `C=C(C)[C@@H]1CC[C@]2(CNCCC(=O)N3CCS(=O)(=O)C3)CC[C@]3(C)[C@H](CC[C@@H]4[C@@]5(C)CC=C(c6ccc(C(=O)O)cc6)C(C)(C)[C@@H]5CC[C@]43C)[C@@H]12` [Example 120, 4-((1R,3aS,5aR,5bR,7aR,11aS,11bR,13aR,13bR)-3a-(((3-(1,1-dioxido-1,3-thiazolidin-3-yl)-3-oxopropyl)amino)methyl)-1-isopropenyl-5a,5b,8,8,11a-pentamethyl-2,3,3a,4,5,5a,5b,6,7,7a,8,11,11a,11b,12,13,13a,13b-octadecahydro-1H-cyclopenta[a]chrysen-9-yl)benzoic acid], under 100 nM; with `C=C(C)[C@@H]1CC[C@]2(CNCCC(=O)N3C[C@H]4CC[C@@H](C3)N4C)CC[C@]3(C)[C@H](CC[C@@H]4[C@@]5(C)CC=C(c6ccc(C(=O)O)cc6)C(C)(C)[C@@H]5CC[C@]43C)[C@@H]12` [Example 121, 4-((1R,3aS,5aR,5bR,7aR,11aS,11bR,13aR,13bR)-5a,5b,8,8,11a-pentamethyl-3a-((3-((1R,5S)-8-methyl-3,8-diazabicyclo[3.2.1]octan-3-yl)-3-oxopropylamino)methyl)-1-(prop-1-en-2-yl)-2,3,3a,4,5,5a,5b,6,7,7a,8,11,11a,11b,12,13,13a,13b-octadecahydro-1H-cyclopenta[a]chrysen-9-yl)benzoic acid], under 100 nM. Still for that read-out and setting: with `C=C(C)[C@@H]1CC[C@]2(CNCCC(=O)N3CCSCC3)CC[C@]3(C)[C@H](CC[C@@H]4[C@@]5(C)CC=C(c6ccc(C(=O)O)cc6)C(C)(C)[C@@H]5CC[C@]43C)[C@@H]12` [Example 122, 4-((1R,3aS,5aR,5bR,7aR,11aS,11bR,13aR,13bR)-5a,5b,8,8,11a-pentamethyl-3a-((3-oxo-3-thiomorpholinopropylamino)methyl)-1-(prop-1-en-2-yl)-2,3,3a,4,5,5a,5b,6,7,7a,8,11,11a,11b,12,13,13a,13b-octadecahydro-1H-cyclopenta[a]chrysen-9-yl)benzoic acid] the figure was under 100 nM; with `C=C(C)[C@@H]1CC[C@]2(CNCCC(=O)N3CCC4(CCN(C)C4=O)CC3)CC[C@]3(C)[C@H](CC[C@@H]4[C@@]5(C)CC=C(c6ccc(C(=O)O)cc6)C(C)(C)[C@@H]5CC[C@]43C)[C@@H]12` [Example 123, 4-((1R,3aS,5aR,5bR,7aR,11aS,11bR,13aR,13bR)-5a,5b,8,8,11a-pentamethyl-3a-((3-(2-methyl-1-oxo-2,8-diazaspiro[4.5]decan-8-yl)-3-oxopropylamino)methyl)-1-(prop-1-en-2-yl)-2,3,3a,4,5,5a,5b,6,7,7a,8,11,11a,11b,12,13,13a,13b-octadecahydro-1H-cyclopenta[a]chrysen-9-yl)benzoic acid], under 100 nM; with `C=C(C)[C@@H]1CC[C@]2(CNCCC(=O)N3CCN(CCS(C)(=O)=O)CC3)CC[C@]3(C)[C@H](CC[C@@H]4[C@@]5(C)CC=C(c6ccc(C(=O)O)cc6)C(C)(C)[C@@H]5CC[C@]43C)[C@@H]12` [Example 124, 4-((1R,3aS,5aR,5bR,7aR,11aS,11bR,13aR,13bR)-5a,5b,8,8,11a-pentamethyl-3a-((3-(4-(2-(methylsulfonyl)ethyl)piperazin-1-yl)-3-oxopropylamino)methyl)-1-(prop-1-en-2-yl)-2,3,3a,4,5,5a,5b,6,7,7a,8,11,11a,11b,12,13,13a,13b-octadecahydro-1H-cyclopenta[a]chrysen-9-yl)benzoic acid], under 100 nM. On the same count and under the same terms, the same measure for `C=C(C)[C@@H]1CC[C@]2(CNCCC(=O)N(C)CCS(C)(=O)=O)CC[C@]3(C)[C@H](CC[C@@H]4[C@@]5(C)CC=C(c6ccc(C(=O)O)cc6)C(C)(C)[C@@H]5CC[C@]43C)[C@@H]12` [Example 125, 4-((1R,3aS,5aR,5bR,7aR,11aS,11bR,13aR,13bR)-5a,5b,8,8,11a-pentamethyl-3a-((3-(methyl(2-(methylsulfonyl)ethyl)amino)-3-oxopropylamino)methyl)-1-(prop-1-en-2-yl)-2,3,3a,4,5,5a,5b,6,7,7a,8,11,11a,11b,12,13,13a,13b-octadecahydro-1H-cyclopenta[a]chrysen-9-yl)benzoic acid]: under 100 nM.

On to `C=C(C)[C@@H]1CC[C@]2(CNCCC(=O)N3CCC4(CC3)OCCO4)CC[C@]3(C)[C@H](CC[C@@H]4[C@@]5(C)CC=C(c6ccc(C(=O)O)cc6)C(C)(C)[C@@H]5CC[C@]43C)[C@@H]12` [Example 126], for which the EC50 (numeric value) was found to be 1 nM.

For the compound `C=C(C)[C@@H]1CC[C@]2(CNCCC(=O)NC)CC[C@]3(C)[C@H](CC[C@@H]4[C@@]5(C)CC=C(c6ccc(C(=O)O)cc6)C(C)(C)[C@@H]5CC[C@]43C)[C@@H]12` [Example 127, 4-((1R,3aS,5aR,5bR,7aR,11aS,11bR,13aR,13bR)-5a,5b,8,8,11a-pentamethyl-3a-((3-(methylamino)-3-oxopropylamino)methyl)-1-(prop-1-en-2-yl)-2,3,3a,4,5,5a,5b,6,7,7a,8,11,11a,11b,12,13,13a,13b-octadecahydro-1H-cyclopenta[a]chrysen-9-yl)benzoic acid], the EC50 (class symbol) is under 100 nM. On the same count and under the same terms, with `C=C(C)[C@@H]1CC[C@]2(CNCCC(=O)N3CCC(=O)CC3)CC[C@]3(C)[C@H](CC[C@@H]4[C@@]5(C)CC=C(c6ccc(C(=O)O)cc6)C(C)(C)[C@@H]5CC[C@]43C)[C@@H]12` [Example 128, 4-((1R,3aS,5aR,5bR,7aR,11aS,11bR,13aR,13bR)-5a,5b,8,8,11a-pentamethyl-3a-((3-oxo-3-(4-oxopiperidin-1-yl)propylamino)methyl)-1-(prop-1-en-2-yl)-2,3,3a,4,5,5a,5b,6,7,7a,8,11,11a,11b,12,13,13a,13b-octadecahydro-1H-cyclopenta[a]chrysen-9-yl)benzoic acid] the figure was under 100 nM. On the same count and under the same terms, the same measure for `C=C(C)[C@@H]1CC[C@]2(CNCCC(=O)NC(C)(CO)CO)CC[C@]3(C)[C@H](CC[C@@H]4[C@@]5(C)CC=C(c6ccc(C(=O)O)cc6)C(C)(C)[C@@H]5CC[C@]43C)[C@@H]12` [Example 129, 4-((1R,3aS,5aR,5bR,7aR,11aS,11bR,13aR,13bR)-3a-((3-(1,3-dihydroxy-2-methylpropan-2-ylamino)-3-oxopropylamino)methyl)-5a,5b,8,8,11a-pentamethyl-1-(prop-1-en-2-yl)-2,3,3a,4,5,5a,5b,6,7,7a,8,11,11a,11b,12,13,13a,13b-octadecahydro-1H-cyclopenta[a]chrysen-9-yl)benzoic acid]: under 100 nM. `C=C(C)[C@@H]1CC[C@]2(CNCC(=O)N3CCCCC3)CC[C@]3(C)[C@H](CC[C@@H]4[C@@]5(C)CC=C(c6ccc(C(=O)O)cc6)C(C)(C)[C@@H]5CC[C@]43C)[C@@H]12` [Example 130, 4-((1R,3aS,5aR,5bR,7aR,11aS,11bR,13aR,13bR)-5a,5b,8,8,11a-pentamethyl-3a-((2-oxo-2-(piperidin-1-yl)ethylamino)methyl)-1-(prop-1-en-2-yl)-2,3,3a,4,5,5a,5b,6,7,7a,8,11,11a,11b,12,13,13a,13b-octadecahydro-1H-cyclopenta[a]chrysen-9-yl)benzoic acid]: the EC50 (class symbol) is under 100 nM. The same measure, in the same setting: the same measure for `C=C(C)[C@@H]1CC[C@]2(CNC(CC(=O)O)C(=O)N3CCC(F)(F)C3)CC[C@]3(C)[C@H](CC[C@@H]4[C@@]5(C)CC=C(c6ccc(C(=O)O)cc6)C(C)(C)[C@@H]5CC[C@]43C)[C@@H]12` (stereo partly drawn) [Example 131, 4-((1R,3aS,5aR,5bR,7aR,11aS,11bR,13aR,13bR)-3a-((3-carboxy-1-(3,3-difluoropyrrolidin-1-yl)-1-oxopropan-2-ylamino)methyl)-5a,5b,8,8,11a-pentamethyl-1-(prop-1-en-2-yl)-2,3,3a,4,5,5a,5b,6,7,7a,8,11,11a,11b,12,13,13a,13b-octadecahydro-1H-cyclopenta[a]chrysen-9-yl)benzoic acid]: under 100 nM.

Consider `C=C(C)[C@@H]1CC[C@]2(CN[C@@H](CC(=O)O)C(=O)N3CCS(=O)(=O)CC3)CC[C@]3(C)[C@H](CC[C@@H]4[C@@]5(C)CC=C(c6ccc(C(=O)O)cc6)C(C)(C)[C@@H]5CC[C@]43C)[C@@H]12` [Example 132, 4-thiomorpholinebutanoic acid, 4-((1R,3aS,5aR,5bR,7aR,11aS,11bR,13aR,13bR)-3a-((((1S)-1-(carboxymethyl)-2-(1,1-dioxido-4-thiomorpholinyl)-2-oxoethyl)amino)methyl)-1-isopropenyl-5a,5b,8,8,11a-pentamethyl-2,3,3a,4,5,5a,5b,6,7,7a,8,11,11a,11b,12,13,13a,13b-octadecahydro-1H-cyclopenta[a]chrysen-9-yl)benzoic acid], for which, where the note is “class symbol”, the EC50 is under 100 nM.

Source of the values: patent US8748415B2 (priority 2011, dated 2014).
